Values of other authors, collected in the PKSmart pharmacokinetics tables (Seal et al. 2025).
*1 amine or outer side, *2 acyl side, *3 side chain or, on linkers, in order; H or OH if unused. Where a SMILES comes first, the peptide text is derived from it. Bridges are numbered along the chain shown (N, C = ends). [ ]: non-standard residue; d: D form. The star is where a group is joined. ξ: configuration not given here. X1 = O=C1CC(C(=O)[*:2])N([*:1])CC1CS[C@@H]1CN2CCC1CC2; ξThr(3R)(O-yl) = C[C@@H](O[*:3])C(N[*:1])C(=O)[*:2]; ξNMePhe(4-NMe2) = CNC(Cc1ccc(N(C)C)cc1)C(=O)O; Picolinoyl(3-OH) = O=C(c1ncccc1O)*; ξNMe2Val = CC(C)C(C(=O)*)N(C)C; NMeV = CN[CH](C(=O)O)C(C)C; ξPhg = NC(C(=O)O)c1ccccc1; ξAbu = CCC(N)C(=O)O; NHtBu = CC(C)(C)N*; ξP = O=C(O)C1CCCN1

Test: Lombardo, Berellini, Obach 2018, Drug Metab Dispos 46:1466, doi 10.1124/dmd.118.082966
Conditions: human; for MRT / Vd / clearance / half-life: in vivo, iv; for fraction unbound: plasma

## CC[C@H](c1ccccc1)c1c(O)c2ccccc2oc1=O
  MRT: 182 h
  Vd: 0.2 L/kg
  clearance: 0.02 mL/min/kg
  half-life: 126 h
  fraction unbound: 0.57

## Clc1cccc(Cl)c1NC1=NCCN1
  MRT: 14 h
  Vd: 3.3 L/kg
  clearance: 4 mL/min/kg
  half-life: 7.6 h
  fraction unbound: 0.56

## N#Cc1c(N2C[C@@H]3NCCO[C@H]3C2)c(F)cc2c(=O)c(C(=O)O)cn(C3CC3)c12
  MRT: 4.11 h
  Vd: 1.42 L/kg
  clearance: 5.75 mL/min/kg
  half-life: 13.4 h
  fraction unbound: 0.75

## COC(=O)c1cnc2n1CCc1ccccc1C2=C1CCN(CCc2ccc(OCc3ccc4ccccc4n3)cc2)CC1
  MRT: 7.1 h
  Vd: 6.03 L/kg
  clearance: 14.1 mL/min/kg
  half-life: 10.6 h
  fraction unbound: 0.001

## c1ccc(C2(c3ccccc3)CC2C2=NCCN2)cc1 (stereo not given)
  MRT: 7.8 h
  Vd: 4.1 L/kg
  clearance: 8.6 mL/min/kg
  half-life: 7.3 h

## C#CCN(C)C(C)Cc1ccccc1 (stereo not given)
  MRT: 1.6 h
  Vd: 1.9 L/kg
  clearance: 20 mL/min/kg
  half-life: 1.3 h

## CCN(CC)CCS(=O)(=O)[C@@H]1CCN2C(=O)c3coc(n3)CC(=O)C[C@H](O)/C=C(C)/C=C\CNC(=O)/C=C/[C@@H](C)[C@H](C(C)C)OC(=O)C12 (stereo not given in full)
  MRT: 0.41 h
  Vd: 0.39 L/kg
  clearance: 16 mL/min/kg
  half-life: 0.74 h
  fraction unbound: 0.82

## C[C@@H]1C[C@H]2[C@@H]3C[C@H](F)C4=CC(=O)C=C[C@]4(C)[C@H]3[C@@H](O)C[C@]2(C)C1C(=O)CO (stereo not given in full)
  MRT: 1.6 h
  Vd: 0.68 L/kg
  clearance: 7 mL/min/kg
  half-life: 1.3 h
  fraction unbound: 0.04

## Cc1c(-c2ccc(O)cc2)n(Cc2ccc(OCCN3CCCCCC3)cc2)c2ccc(O)cc12
  fraction unbound: 0.02

## Nc1nc(OCc2cc(Br)cs2)c2[nH]cnc2n1
  clearance: 21.6 mL/min/kg
  half-life: 2.92 h

## C[C@]12C[C@]3(O)O[C@@H](O1)[C@@]1(COC(=O)c4ccccc4)[C@@H]3C[C@]12O[C@@H]1O[C@H](CO)[C@@H](O)[C@H](O)[C@H]1O
  fraction unbound: 0.77

## Nc1nc2c(Cc3cccnc3)c[nH]c2c(=O)[nH]1
  MRT: 3.2 h
  Vd: 1.2 L/kg
  clearance: 6.2 mL/min/kg
  half-life: 3 h
  fraction unbound: 0.86

## CCCCCCCCOCCOC(=O)CN(CC(=O)O)c1ccccc1OCCOc1ccccc1N(CC(=O)O)CC(=O)OCCOCCCCCCCC
  MRT: 1.3 h
  Vd: 1.1 L/kg
  clearance: 14 mL/min/kg
  half-life: 3.5 h

## C=CC[N+]1([C@H]2C[C@H]3[C@@H]4CC[C@H]5C[C@H](O)[C@@H](N6CCOCC6)C[C@]5(C)[C@H]4CC[C@]3(C)[C@H]2OC(C)=O)CCCC1
  MRT: 0.95 h
  Vd: 0.21 L/kg
  clearance: 3.7 mL/min/kg
  half-life: 1.6 h
  fraction unbound: 0.54

## O=C1NCC2(CCN(CCc3ccccc3)CC2)O1
  MRT: 19 h
  Vd: 3 L/kg
  clearance: 2.6 mL/min/kg
  half-life: 14 h

## CSCO[C@H]1C[C@H]2OC[C@@]2(OC(C)=O)[C@H]2[C@H](OC(=O)c3ccccc3)[C@]3(O)C[C@H](OC(=O)C(O)C(NC(=O)c4ccccc4)c4ccccc4)C(C)=C(C(OC(C)=O)C(=O)[C@]12C)C3(C)C (stereo not given in full)
  MRT: 29 h
  Vd: 11 L/kg
  clearance: 6.4 mL/min/kg
  half-life: 32 h

## CC(C)C(NC(=O)C(C(C)C)N(C)C)C(=O)N(C)C(C(=O)N1CCCC1C(=O)N1CCCC1C(=O)NC(C)(C)C)C(C)C (stereo not given) (ξNMe2Val-V[NMeV]PP-NHtBu; configuration not given here)
  MRT: 0.58 h
  Vd: 0.33 L/kg
  clearance: 9.6 mL/min/kg
  half-life: 0.57 h

## CC=CC1=C(C(=O)O)N2C(=O)C(NC(=O)C(N)c3ccc(O)cc3)[C@H]2SC1 (stereo not given in full)
  MRT: 1.2 h
  Vd: 0.21 L/kg
  clearance: 2.9 mL/min/kg
  half-life: 1.2 h

## CC(=O)N[C@H]1[C@H]([C@H](O)[C@H](O)CO)OC(C(=O)O)=C[C@@H]1NC(=N)N
  MRT: 2.4 h
  Vd: 0.23 L/kg
  clearance: 1.6 mL/min/kg
  half-life: 1.7 h

## O=C(O)c1cc(/N=N/c2ccc(S(=O)(=O)Nc3ccccn3)cc2)ccc1O
  MRT: 6.8 h
  Vd: 0.11 L/kg
  clearance: 0.26 mL/min/kg
  half-life: 7.6 h
  fraction unbound: 0.004

## CC(=O)OC1=C2C(C)[C@@H](OC(=O)C(O)C(CC(C)C)NC(=O)OC(C)(C)C)[C@@H]3OC(=O)O[C@]3([C@@H](OC(=O)c3ccccc3)[C@@H]3[C@]4(OC(C)=O)CO[C@@H]4C[C@H](O)[C@@]3(C)C1=O)C2(C)C (stereo not given in full)
  MRT: 28.4 h
  Vd: 13.8 L/kg
  clearance: 8.12 mL/min/kg
  half-life: 30.1 h

## COc1ccc(/C=C\c2cc(OC)c(OC)c(OC)c2)cc1OP(=O)(O)O
  MRT: 0.3 h
  Vd: 0.11 L/kg
  clearance: 5.86 mL/min/kg
  half-life: 0.47 h
  fraction unbound: 0.23

## CO[C@H]1/C=C/O[C@@]2(C)Oc3c(C)c(O)c4c(O)c(c(/C=N/N5CCN(C)CC5)c(O)c4c3C2=O)NC(=O)C(C)=CC=CC(C)[C@H](O)[C@@H](C)[C@@H](O)[C@@H](C)[C@H](OC(C)=O)[C@@H]1C (stereo not given in full)
  MRT: 4.6 h
  Vd: 0.97 L/kg
  clearance: 3.5 mL/min/kg

## Cn1c(=O)c2c(ncn2CC2OCCO2)n(C)c1=O
  MRT: 2.5 h
  Vd: 1.03 L/kg
  clearance: 6.83 mL/min/kg
  half-life: 1.66 h

## CC(NCc1ccc(OCc2cccc(F)c2)cc1)C(N)=O (stereo not given)
  MRT: 31.2 h
  Vd: 2.19 L/kg
  clearance: 1.17 mL/min/kg
  half-life: 21.7 h

## COC[C@@H](O)CN(C(C)=O)c1c(I)c(C(=O)NC[C@H](O)CO)c(I)c(C(=O)NC[C@H](O)CO)c1I
  MRT: 2.64 h
  Vd: 0.2 L/kg
  clearance: 1.27 mL/min/kg
  half-life: 2.04 h
  fraction unbound: 1

## CCC1NC(=O)C(NC(=O)c2ncccc2O)[C@@H](C)OC(=O)C(c2ccccc2)NC(=O)C2CC(=O)C(CS[C@@H]3CN4CCC3CC4)CN2C(=O)C(Cc2ccc(N(C)C)cc2)N(C)C(=O)C2CCCN2C1=O (stereo partly drawn) ({Picolinoyl(3-OH)}-[ξThr(3R)(O-yl)][ξAbu][ξP][ξNMePhe(4-NMe2)][X1][ξPhg]; ester 1-C)
  MRT: 0.7 h
  Vd: 0.67 L/kg
  clearance: 16 mL/min/kg
  half-life: 0.87 h
  fraction unbound: 0.34

## CC1C(=O)O[C@H]2[C@H](O)C34[C@H]5C[C@@H](C(C)(C)C)C36C(O)C(=O)O[C@H]6OC4(C(=O)O5)[C@@]12O (stereo not given in full)
  MRT: 6.6 h
  Vd: 0.91 L/kg
  clearance: 2.3 mL/min/kg
  half-life: 5.2 h
  fraction unbound: 0.8

## COc1cc(CC2c3c(cc(OC)c(OC)c3OC)CC[N+]2(C)CCCOC(=O)CCC(=O)OCCC[N+]2(C)CCc3cc(OC)c(OC)c(OC)c3C2Cc2cc(OC)c(OC)c(OC)c2)cc(OC)c1OC (stereo not given)
  MRT: 1.4 h
  Vd: 0.22 L/kg
  clearance: 2.7 mL/min/kg
  half-life: 1.7 h
  fraction unbound: 0.53

## O=C(O)C1/C(=C/CO)O[C@@H]2CC(=O)N12 (stereo not given in full)
  MRT: 1 h
  Vd: 0.22 L/kg
  clearance: 3.1 mL/min/kg
  half-life: 0.9 h

## Nc1nc(CC(=O)Nc2ccc(CCNC[C@H](O)c3ccccc3)cc2)cs1
  MRT: 29.3 h
  Vd: 23.8 L/kg
  clearance: 13.6 mL/min/kg
  half-life: 50 h
  fraction unbound: 0.29

## CC(C)COC[C@@H](CN(Cc1ccccc1)c1ccccc1)N1CCCC1
  MRT: 19.3 h
  Vd: 10.1 L/kg
  clearance: 8.7 mL/min/kg
  half-life: 14.9 h
  fraction unbound: 0.001
